# Active and inactive are the calls of the source. No cut-off for these calls is given here.
# Key:
# 3T3-L1 [1] = experiment: Inhibition of adipogenesis in mouse 3T3L1 cells assessed as fat accumulation at 300 uM after 8 days by oil red O-staining based by ELISA plate reader; type: functional; conditions: 3T3-L1, 192 h
# 3T3-L1 [2] = experiment: Inhibition of adipogenesis in mouse 3T3L1 cells assessed as fat accumulation at 300 uM up to 2 days by oil red O-staining based by ELISA plate reader; type: functional, cell-based
# 3T3-L1 [3] = experiment: Inhibition of adipogenesis in mouse 3T3L1 cells assessed as fat accumulation at 300 uM after 2 to 4 days by oil red O-staining based by ELISA plate reader; type: functional, cell-based
# 3T3-L1 [4] = experiment: Inhibition of adipogenesis in mouse 3T3L1 cells assessed as fat accumulation at 300 uM after 2 to 8 days by oil red O-staining based by ELISA plate reader; type: functional, cell-based
# 3T3-L1 [5] = experiment: Inhibition of adipogenesis in mouse 3T3L1 cells assessed as fat accumulation at 300 uM up to 4 days by oil red O-staining based by ELISA plate reader; type: functional, cell-based
# 3T3-L1 [6] = experiment: Inhibition of adipogenesis in mouse 3T3L1 cells assessed as fat accumulation at 300 uM after 4 to 8 days by oil red O-staining based by ELISA plate reader; type: functional, cell-based
# 3T3-L1 [7] = experiment: Inhibition of adipogenesis in mouse 3T3L1 cells assessed as fat accumulation at 100 uM after 8 days by oil red O-staining based by ELISA plate reader; type: functional; conditions: 3T3-L1, 192 h
compound,measurement,setting,value
C/C(=C/Cc1c(O[C@@H]2O[C@H](CO)[C@@H](O)[C@H](O)[C@H]2O)cc2oc(C)cc(=O)c2c1O)CO,inhibition at 300 µM,3T3-L1 [1],87%
C/C(=C/Cc1c(O)cc2oc(C)cc(=O)c2c1O)CO[C@@H]1O[C@H](CO)[C@@H](O)[C@H](O)[C@H]1O [CNIDIMOSIDE A],inhibition at 300 µM,3T3-L1 [1],75%
COc1cc2oc(C)cc(=O)c2c(O)c1C/C=C(/C)CO[C@@H]1O[C@H](CO)[C@@H](O)[C@H](O)[C@H]1O [CNIDIMOSIDE B],inhibition,3T3-L1 [2],Active
same,inhibition,3T3-L1 [3],Active
same,inhibition,3T3-L1 [4],Active
same,inhibition at 300 µM,3T3-L1 [1],14.7%
same,inhibition,3T3-L1 [5],Active
same,inhibition,3T3-L1 [6],Active
C/C(=C/Cc1c(O)cc2oc(CO)cc(=O)c2c1O)CO[C@@H]1O[C@H](CO)[C@@H](O)[C@H](O)[C@H]1O [HYDROXYCNIDIMOSIDE A],inhibition at 300 µM,3T3-L1 [1],73.1%
C/C(=C/Cc1c(O[C@@H]2O[C@H](CO)[C@@H](O)[C@H](O)[C@H]2O)cc2oc(CO)cc(=O)c2c1O)CO [MONNIERISIDE B],inhibition at 300 µM,3T3-L1 [1],68.9%
C=C(C)C(Cc1c(O)cc2oc(C)cc(=O)c2c1O)O[C@@H]1O[C@H](CO)[C@@H](O)[C@H](O)[C@H]1O (stereo partly drawn) [MONNIERISIDE C],inhibition at 300 µM,3T3-L1 [1],79.9%
C=C(C)C(Cc1c(O)cc2oc(CO)cc(=O)c2c1O)O[C@@H]1O[C@H](CO)[C@@H](O)[C@H](O)[C@H]1O (stereo partly drawn) [MONNIERISIDE D],inhibition at 300 µM,3T3-L1 [1],85.5%
C=C(C)C(O)Cc1c(O[C@@H]2O[C@H](CO)[C@@H](O)[C@H](O)[C@H]2O)cc2oc(CO)cc(=O)c2c1O (stereo partly drawn) [MONNIERISIDE E],inhibition at 300 µM,3T3-L1 [1],82.2%
C=C(C)C1Cc2c(cc3oc(CO[C@@H]4O[C@H](CO)[C@@H](O)[C@H](O)[C@H]4O)cc(=O)c3c2O)O1 (stereo partly drawn) [MONNIERISIDE F],inhibition at 300 µM,3T3-L1 [1],97.1%
Cc1cc(=O)c2c(O)c3c(cc2o1)OC(C(C)(C)O[C@@H]1O[C@H](CO)[C@@H](O)[C@H](O)[C@H]1O)C3 (stereo partly drawn) [MONNIERISIDE G],inhibition at 300 µM,3T3-L1 [1],99.7%
Oc1ccc(/C=C/c2cc(O)cc(O)c2)cc1 [RESVERATROL],inhibition at 100 µM,3T3-L1 [7],19.4%
C=C(C)C1Cc2c(cc3oc(CO)cc(=O)c3c2O)O1 (stereo not drawn) [UMTATIN],inhibition at 300 µM,3T3-L1 [1],89.4%
Cc1cc(=O)c2c(O)cc(O[C@@H]3O[C@H](CO)[C@@H](O)[C@H](O)[C@H]3O)cc2o1 [UNDULATOSIDE A],inhibition at 300 µM,3T3-L1 [1],88.5%
